Results published in patent US8354419B2, “Benzimidazole analogues for the treatment or prevention of flavivirus infections” (Vertex Pharmaceuticals Incorporated, priority 2009, dated 2013).

system: HCV (Ib) RNA replication; assay: Cell-based luciferase reporter HCV (1b) RNA replication assay (replicon cell lines Huh-7 5.2 and ET); parameters: species or system Hepatitis C virus; conditions: Hepatitis C virus, Huh-7, 96 h, HCV 1b genotype replicon, luciferase readout, 4 days incubation; read-out: EC50_1b
Outline: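 Compounds were tested at eleven concentrations in duplicate over 4 days at 37 °C, 5% CO2. The cells were luciferase-reporter HCV 1b replicon lines 5.2 (NS5A adaptive mutation) or ET (NS4B mutation). Luminescence of lysates was measured, and IC50s were derived by nonlinear curve fitting.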

Which EC50 does the source give for `COC(=O)N(C)[C@H](C(=O)N1C[C@@H](C)C[C@H]1c1nc2cc(-c3ccc(-c4ccc5[nH]c([C@@H]6C[C@H](C)CN6C(=O)[C@H](C(C)C)N(C)C(=O)OC)nc5c4)c4nsnc34)ccc2[nH]1)C(C)C` [Compound 299] here?
The EC50 was no more than 5 nM.

With `COC(=O)N[C@H](C(=O)N1C(C)CC[C@H]1c1nc2cc(-c3ccc(-c4ccc5[nH]c([C@@H]6CCC(C)N6C(=O)[C@@H](NC(=O)OC)C(C)C)nc5c4)c(C)c3)ccc2[nH]1)C(C)C` (stereo partly drawn) [Compound 300] as the compound, how does the EC50 read?
The EC50 was no more than 5 nM.

How did the EC50 turn out when `COC(=O)N[C@H](C(=O)N1C(C)CC[C@H]1c1nc2cc(-c3ccc(-c4ccc5[nH]c([C@@H]6CCC(C)N6C(=O)[C@H](C(C)C)N(C)C(=O)OC)nc5c4)cc3)ccc2[nH]1)C(C)C` (stereo partly drawn) [Compound 301] was run?
The EC50 was no more than 5 nM.

With `CC[C@H]1C[C@@H](c2nc3cc(-c4ccc(-c5ccc6[nH]c([C@@H]7C[C@H](CC)CN7C(=O)[C@@H](NC(C)OC)C(C)C)nc6c5)cc4)ccc3[nH]2)N(C(=O)[C@@H](NC(=O)OC)C(C)C)C1` (stereo partly drawn) [Compound 302] as the compound, how does the EC50 read?
The EC50 was no more than 5 nM.

`COC(=O)N[C@H](C(=O)N1C[C@@H](C)C[C@H]1c1nc2cc(-c3ccc(-c4ccc5[nH]c([C@@H]6C[C@H](C)CN6C(=O)[C@@H](NC(=O)OC)C(C)C)nc5c4)c4nsnc34)ccc2[nH]1)C(C)C` [Compound 304] was tested. Which EC50 did it give?
The EC50 was no more than 5 nM.

`COC(=O)N[C@H](C(=O)N1C[C@@H](C)C[C@H]1c1nc2cc(-c3ccc(-c4ccc5[nH]c([C@@H]6C[C@H](C)CN6C(=O)[C@H](C(C)C)N6CCOC6=O)nc5c4)cc3)ccc2[nH]1)C(C)C` [Compound 305] was tested. Which EC50 did it give?
The EC50 was no more than 5 nM.

`CC(C)[C@@H](C(=O)N1C[C@@H](C)C[C@H]1c1nc2cc(-c3ccc(-c4ccc5[nH]c([C@@H]6C[C@H](C)CN6C(=O)[C@H](C(C)C)N6CCOC6=O)nc5c4)cc3)ccc2[nH]1)N1CCOC1=O` [Compound 306] was tested. Which EC50 did it give?
Its EC50 is no more than 5 nM.

Which EC50 does the source give for `COC(=O)N[C@H](C(=O)N1C[C@@H](C)C[C@H]1c1nc2cc(-c3cnc(-c4ccc5[nH]c([C@@H]6C[C@H](C)CN6C(=O)[C@@H](NC(=O)OC)C(C)C)nc5c4)cn3)ccc2[nH]1)C(C)C` [Compound 307] here?
The EC50 was no more than 5 nM.

With `COC(=O)N[C@H](C(=O)N1[C@H](C)CC[C@H]1c1nc2cc(-c3ccc(-c4ccc5[nH]c([C@@H]6CC[C@@H](C)N6C(=O)[C@@H](NC(=O)OC)C(C)C)nc5c4)cc3)ccc2[nH]1)C(C)C` [Compound 310] as the compound, how does the EC50 read?
Its EC50 is no more than 5 nM.

`COC(=O)N[C@H](C(=O)N1[C@H](c2nc3cc(-c4ccc(-c5ccc6nc([C@@H]7CCC(C)(C)N7C(=O)[C@@H](NC(=O)OC)C(C)C)[nH]c6c5)cc4)ccc3[nH]2)CCC1(C)C)C(C)C` [Compound 311] was tested. Which EC50 did it give?
The EC50 was no more than 5 nM.

How did the EC50 turn out when `COC(=O)N[C@H](C(=O)N1[C@H](C)CC[C@H]1c1nc2cc(-c3ccc(-c4ccc5[nH]c([C@@H]6CC[C@H](C)N6C(=O)[C@@H](NC(=O)OC)C(C)C)nc5c4)cc3)ccc2[nH]1)C(C)C` [Compound 313] was run?
Its EC50 is no more than 5 nM.

Which EC50 does the source give for `COC(=O)N[C@H](C(=O)N1[C@@H](C)CC[C@H]1c1nc2cc(-c3cc(F)c(-c4ccc5[nH]c([C@@H]6CC[C@H](C)N6C(=O)[C@@H](NC(=O)OC)C(C)C)nc5c4)cc3F)ccc2[nH]1)C(C)C` [Compound 314] here?
Its EC50 is no more than 5 nM.

How did the EC50 turn out when `COC(=O)N[C@H](C(=O)N1C[C@@H](C(F)F)C[C@H]1c1nc2cc(-c3ccc(-c4ccc5[nH]c([C@@H]6C[C@H](C(F)F)CN6C(=O)[C@@H](NC(=O)OC)C(C)C)nc5c4)cc3)ccc2[nH]1)C(C)C` [Compound 315] was run?
The EC50 was no more than 5 nM.

`COC(=O)N[C@H](C(=O)N1C[C@@H](C(F)(F)F)C[C@H]1c1nc2cc(-c3ccc(-c4ccc5[nH]c([C@@H]6C[C@H](C(F)(F)F)CN6C(=O)[C@@H](NC(=O)OC)C(C)C)nc5c4)cc3)ccc2[nH]1)C(C)C` [Compound 316] was tested. Which EC50 did it give?
Its EC50 is no more than 5 nM.

Which EC50 does the source give for `COC(=O)N[C@H](C(=O)N1[C@@H](C)CC[C@H]1c1nc2ccc(-c3ccc(-c4ccc5nc([C@@H]6CC[C@H](C)N6C(=O)[C@@H](NC(=O)OC)C(C)C)[nH]c5c4)c4nsnc34)cc2[nH]1)C(C)C` [Compound 317] here?
Its EC50 is no more than 5 nM.

For `COC(=O)N[C@H](C(=O)N1[C@@H](C)CC[C@H]1c1nc2cc(-c3ccc(-c4ccc5[nH]c([C@@H]6CC[C@H](C)N6C(=O)[C@@H](NC(=O)OC)C(C)C)nc5c4)c4c3OCO4)ccc2[nH]1)C(C)C` [Compound 318], which EC50 is on record?
The EC50 was no more than 5 nM.

Which EC50 does the source give for `COC(=O)N[C@H](C(=O)N1[C@@H](C)CC[C@H]1c1nc2cc(-c3csc4c(-c5ccc6[nH]c([C@@H]7CC[C@H](C)N7C(=O)[C@@H](NC(=O)OC)C(C)C)nc6c5)csc34)ccc2[nH]1)C(C)C` [Compound 319] here?
Its EC50 is no more than 5 nM.

How did the EC50 turn out when `COC(=O)N[C@H](C(=O)N1C[C@@H](C)C[C@H]1c1nc2cc(-c3ccc(-c4ccc5[nH]c([C@@H]6CC[C@H](C)N6C(=O)[C@@H](NC(=O)OC)C(C)C)nc5c4)cc3)ccc2[nH]1)C(C)C` [Compound 320] was run?
Its EC50 is no more than 5 nM.

Which EC50 does the source give for `COC(=O)N[C@H](C(=O)N1[C@@H](C)CC[C@H]1c1nc2cc(-c3cc4sc(-c5ccc6[nH]c([C@@H]7CC[C@H](C)N7C(=O)[C@@H](NC(=O)OC)C(C)C)nc6c5)cc4s3)ccc2[nH]1)C(C)C` [Compound 321] here?
The EC50 was no more than 5 nM.

`COC(=O)N[C@H](C(=O)N1[C@@H](C)CC[C@H]1c1nc2ccc(-c3ccc(-c4ccc5nc([C@@H]6CC[C@H](C)N6C(=O)[C@@H](NC(=O)OC)C(C)C)[nH]c5c4)c(F)c3)cc2[nH]1)C(C)C` [Compound 322] was tested. Which EC50 did it give?
The EC50 was no more than 5 nM.

How did the EC50 turn out when `COC(=O)N[C@H](C(=O)N1C[C@@H](C)C[C@H]1c1nc2cc(-c3cc4sc(-c5ccc6nc([C@@H]7C[C@H](C)CN7C(=O)[C@@H](NC(=O)OC)C(C)C)n(C)c6c5)cc4s3)ccc2[nH]1)C(C)C` [Compound 323] was run?
The EC50 was no more than 5 nM.

How did the EC50 turn out when `COC(=O)N[C@H](C(=O)N1[C@@H](C)CC[C@H]1c1nc2cc(C#CC#Cc3ccc4[nH]c([C@@H]5CC[C@H](C)N5C(=O)[C@@H](NC(=O)OC)C(C)C)nc4c3)ccc2[nH]1)C(C)C` [Compound 324] was run?
Its EC50 is no more than 5 nM.

For `COC(=O)N[C@H](C(=O)N1CC(C)(C)C[C@H]1c1nc2cc(-c3cc4sc(-c5ccc6[nH]c([C@@H]7CC(C)(C)CN7C(=O)[C@@H](NC(=O)OC)C(C)C)nc6c5)cc4s3)ccc2[nH]1)C(C)C` [Compound 325], which EC50 is on record?
The EC50 was no more than 5 nM.

With `COC(=O)N[C@H](C(=O)N1CCC[C@H]1c1nc2cc(N3CCN(c4ccc5nc([C@@H]6CCCN6C(=O)[C@@H](NC(=O)OC)C(C)C)[nH]c5c4)[C@H](C)C3)ccc2[nH]1)C(C)C` [Compound 326] as the compound, how does the EC50 read?
The EC50 was no more than 5 nM.

For `COC(=O)N[C@H](C(=O)N1C[C@@H](C)C[C@H]1c1nc2cc(-c3ccc(-c4ccc5[nH]c([C@@H]6CC(C)(C)CN6C(=O)[C@@H](NC(=O)OC)C(C)C)nc5c4)cc3)ccc2[nH]1)C(C)C` [Compound 327], which EC50 is on record?
The EC50 was no more than 5 nM.

`COC(=O)N[C@H](C(=O)N1CCC[C@H]1c1nc2cc(N3CCCN(c4ccc5nc([C@@H]6CCCN6C(=O)[C@@H](NC(=O)OC)C(C)C)[nH]c5c4)CC3)ccc2[nH]1)C(C)C` [Compound 328] was tested. Which EC50 did it give?
The EC50 was no more than 5 nM.

How did the EC50 turn out when `COC(=O)N[C@H](C(=O)N1CCC[C@H]1c1nc2cc(N3CCN(c4ccc5[nH]c([C@@H]6CCCN6C(=O)[C@@H](NC(=O)OC)C(C)C)nc5c4)[C@@H](C)C3)ccc2[nH]1)C(C)C` [Compound 329] was run?
The EC50 was no more than 5 nM.

`COC(=O)N[C@H](C(=O)N1C[C@@H](C)C[C@H]1c1nc2cc(-c3ccc4cc(-c5ccc6[nH]c([C@@H]7C[C@H](C)CN7C(=O)[C@@H](NC(=O)OC)C(C)C)nc6c5)ccc4c3)ccc2[nH]1)C(C)C` [Compound 330] was tested. Which EC50 did it give?
Its EC50 is no more than 5 nM.

`COC(=O)N[C@H](C(=O)N1C[C@@H](C)C[C@H]1c1nc2cc(-c3sc4c(C)c(-c5ccc6[nH]c([C@@H]7C[C@H](C)CN7C(=O)[C@@H](NC(=O)OC)C(C)C)nc6c5)sc4c3C)ccc2[nH]1)C(C)C` [Compound 331] was tested. Which EC50 did it give?
Its EC50 is no more than 5 nM.

For `COC(=O)N[C@H](C(=O)N1C[C@@H](C)C[C@H]1c1nc2cc(-c3cc4cc(-c5ccc6[nH]c([C@@H]7C[C@H](C)CN7C(=O)[C@@H](NC(=O)OC)C(C)C)nc6c5)sc4s3)ccc2[nH]1)C(C)C` [Compound 332], which EC50 is on record?
The EC50 was no more than 5 nM.
